Here are results for 11 molecules from patent publication US7022520B2, “Cell culture media for mammalian cells” (University of Pittsburgh, priority 1996, dated 2006).

One data set deals with hepatocytes. Kind of data set: Hepatocytes between two type I collagen gel layers in HBM: ductular/acinar structures and proliferation. The format is cell-based, rat. Conditions: for phenotype of hepatocytes between two collagen gel layers: HBM supplemented with the growth factor, 15 day cultures. As for the experimental part:
(§1) Collagen gels were prepared as described by Michalopoulos, G. K., et al., Exp. Cell. Res. 94:70 (1975), the disclosure of which is incorporated herein by reference. Dry coating of plates with collagen and Matrigel was also performed as specified by the manufacturer. Matrigel gels were made by adding 50 μl of Matrigel solution into 0.5 ml of medium directly on the top of attached cells.
Hepatocytes maintained between two collagen gel layers retain their morphology and differentiation for prolonged time periods as described by Michalopoulos, G. K., et al., J. Cell. Physiol. 156:443 (1993), the disclosure of which is incorporated herein by reference. Hepatocytes maintained in collagen gel sandwiches in cultures with convential media containing HGF/SF undergo intense proliferation, form prominent projections, and eventually become organized in structures reminiscent of the hepatic plates. The behavior of hepatocytes maintained between two layers of collagen gel as previously described was examined, but in the presence of HBM supplemented with either HGF/SF or EGF as described above. […] These became prominent and encompassed most of the cells present in the cultures. Starting from approximately day 10 and by day 15 most of the cells in the culture were arranged in such ductular structures. Histologic sections are shown in FIG. 7B (light microscopy) and FIGS. 7C and 7D (electron microscopy). […] Some of the cells surrounding these structures were very attenuated and had light and electron microscopic appearance identical to bile duct epithelium. Others however are larger and resemble more closely the ductular hepatocytes described in previous studies of in vivo models. The proliferation of cells (data not shown) under either EGF or HGF/SF in the collagen gel sandwiches was much less (<25% at the highest peak) than that seen in the cultures on plastic coated with dry collagen. Most proliferation ceased by day 10 and the duct-like structures appeared after cell proliferation had ceased (days 10–15). […]

Data set [1] has as its system proliferating hepatocytes. Description: Matrigel overlay: reversion of proliferating hepatocytes to mature hepatocyte morphology. The conditions noted are these: Matrigel overlay with 20 mM hydroxyurea. The format is cell-based, rat.
Description: To assess whether differentiation to mature hepatocyte morphology required DNA synthesis, 20 mM hydroxurea was added to the HBM media. […] Hydroxyurea was added to cultures before the Madrigel overlay and maintained throughout the next 5-day period.
Data set [2] has as its system proliferating hepatocytes. Description: DNA synthesis in hepatocyte cultures (tritiated thymidine uptake). The format is cell-based, rat. The conditions noted are these: for DNA synthesis: 20 mM, 5-day period. On the procedure: (§2) DNA synthesis was measured by the uptake of tritiated thymidine into trichloroacetic acid (TCA) precipitable material as described by Kost, D. P., et al. (1991), cited above. Collagen gels, where necessary, were digested with 2 mg of collagenase per ml of MEM medium used. Incubation was then carried out for 30 minutes at 37° C. The digested gels were treated with NaOH followed by TCA to precipitate DNA, RNA, and proteins as described by Kost, D. P., et al. (1991), cited above.
To assess whether differentiation to mature hepatocyte morphology required DNA synthesis, 20 mM hydroxurea was added to the HBM media. This has been shown (Michalopoulos, G. K., et al., Cancer Res. 38:1866 (1978), the disclosure of which is incorporated herein by reference) to abolish scheduled semiconservative DNA synthesis in hepatocytes by inhibiting ribonucleotide reductase. Hydroxyurea was added to cultures before the Madrigel overlay and maintained throughout the next 5-day period.
Hepatocytes maintained between two collagen gel layers retain their morphology and differentiation for prolonged time periods as described by Michalopoulos, G. K., et al., J. Cell. Physiol. 156:443 (1993), the disclosure of which is incorporated herein by reference. Hepatocytes maintained in collagen gel sandwiches in cultures with convential media containing HGF/SF undergo intense proliferation, form prominent projections, and eventually become organized in structures reminiscent of the hepatic plates. The behavior of hepatocytes maintained between two layers of collagen gel as previously described was examined, but in the presence of HBM supplemented with either HGF/SF or EGF as described above. […] These became prominent and encompassed most of the cells present in the cultures. Starting from approximately day 10 and by day 15 most of the cells in the culture were arranged in such ductular structures. Histologic sections are shown in FIG. 7B (light microscopy) and FIGS. 7C and 7D (electron microscopy). […]

Data set [3] relates to rat hepatocytes. Kind of data set: Hepatocyte proliferation in HBM supplemented with growth factors (total DNA per culture, thymidine uptake, BRdU labeling). It counts as cell-based. Conditions: FIG. 2; for cell proliferation, total amount of DNA per culture at day 15: growth factor added individually to HBM medium.
Description: Rat hepatocytes were isolated by an adaptation of the calcium two step collagenase perfusion technique as taught by Kost, D. P., et al, J. Cell. Physiol. 147:274 (1991), the disclosure of which is incorporated herein by reference. All such preparations were designed to obtain a population of pure hepatocytes. […] After isolation of hepatocytes, the cells were suspended in a media used for cell attachment to the culture plates. This media was MEM (GIBCO 12570) with NEAA (GIBCO 11140), insulin 5 mg/L, and gentamycin 5 μg/ml. Hepatocytes were plated on a single layer of collagen coating as described below and left to attach for 2 hours. Six-well cluster plates (9.8 square centimeters […]) from Corning were used. For experiments where hepatocytes were not going to be induced to proliferate, or where assessments of differentiated function were performed, the cells were plated at a density of 80,000 hepatocytes per square centimeter of surface area. For experiments intended to induce proliferation or genetic transduction with foreign DNA, cells were plated at an initial density of 1,000 or 10,000 hepatocytes per square centimeter of surface area. The plating medium was replaced with the invention HBM medium at 2 hours after the cells were plated and every 48 hours thereafter. Thymidine, growth factors, and other ingredients, were added at the time of medium change as required.
as §2
FIGS. 1A and 1B show the uptake of thymidine per μg DNA, as well as the BRdU nuclear labeling index at different days in culture in cells growing in the presence of HGF/SF and EGF (40, 20 ng/ml respectively) as described above. […] By day 15 the cultures were confluent and DNA synthesis slowed down.
The growth factors HGF/SF, EGF, TGFα, KGF (keratinocyte growth factor), SCF (stem cell factor), and aFGF (acidic fibroblast growth factor) were added individually to HBM medium. […] The total DNA per culture is shown as a function of the time in culture. […] The DNA per culture at day 15 was 12 times that at time 0, reflecting the increase in cell number. […] TGFα alone was more mitogenic than either HGF/SF or EGF alone.

The subject of data set [4] is rat hepatocytes. Description: Effect of matrix substrates on hepatocyte growth (total DNA per culture at day 15). The conditions noted are these: dry coating of plates; HBM with HGF/SF 40 ng/ml and EGF 20 ng/ml; FIG. 3. The format is cell-based. As for the experimental part:
as §1
Several matrix substrates promoted cell growth in this system. […] The cells were cultured as described above. […] Coating with type I collagen (Vitrogen commercial preparation) was the standard method used for the experiments unless otherwise specified. The effect of matrix gels in promoting specific phenotypic conversions in these cultures is further discussed below.

Data set [5] has as its system cytochrome P450 IIB1 mRNA. Kind of data set: Northern blot of cytochrome IIB1 mRNA induction. Conditions: PB added at day 10 of culture, harvest at day 15; with or without Matrigel at day 8; FIG. 6E.
Description: Extraction of Total RNA and mRNA from Cultures. Total RNA was extracted from unwashed cell cultures using 2.0 ml of RNAzol B (BioTec) per well and purified per the manufacturer's guidelines. RNA concentration and purity were determined by routine spectrophotometry. Size separation of 20 μg RNA per lane was completed on denaturing it agarose gels and transferred to nylon membranes (Amersham, Arlington Heights, Ill.) by the capillary method. After cross-linking under UV light, the membranes were hybridized overnight with specific cDNAs (as indicated in the figures) that had been labeled with [α-^32P]dCTP using an Amersham random primer kit. Membranes were subsequently washed under high stringency conditions and exposed to XAR film (Eastman Kodak, Rochester, N.Y.) for 1–3 days. Quantification of the RNA hybridization bands were performed by laser densitometry.
The effect of Phenobarbitol (PB) on the levels of cytochrome P450 IIB1 mRNA in the Matrigel-treated cultures was also measured as shown in FIG. 6E. Matrigel was added to the cultures at day 8. PB was added 2 days later (day 10 of culture). The cells were harvested 5 days after addition of PB (day 15 in culture).

`NC(=O)NO` [Hydroxyurea]: in the data set on hepatocytes (collagen gel sandwich, data not shown), the “formation of the ductular structures under inhibition of DNA synthesis” value is reported as “did not affect the formation of the ductular structures”. Besides, the “conversion of the proliferating hepatocytes to mature hepatocyte morphology” value in data set [1] is recorded as “entirely unaffected”. Besides, the DNA synthesis in data set [2] (cultures in the presence of Matrigel) is 6.27 % of control (without hydroxyurea); in data set [2] (proliferating cultures in the absence of Matrigel), 3.93 % of the control (without hydroxyurea). For the same molecule, in data set [2] (collagen gel sandwich cultures, data not shown), the “DNA synthesis (inhibition down to)” value is recorded as 5.1 % of control.

As to aFGF: acidic fibroblast growth factor, the “cell proliferation, total amount of DNA per culture at day 15” value (from here on “cell proliferation … per culture at day 15”) in the data set on rat hepatocytes [3] is on record as “no proliferative effect”.

For EGF: epidermal growth factor, the “phenotype of hepatocytes between two collagen gel layers” value in the data set on hepatocytes is given as “underwent the typical phenotypic transitions”. Besides, in the data set with rat hepatocytes [3], the “cell proliferation … per culture at day 15” value is reported as “significant cell proliferation”.

Turning to fibronectin, the “promotion of cell growth, total DNA per culture at day 15” value (“promotion … per culture at day 15” for short) in the data set with rat hepatocytes [4] is recorded as “equally effective in promoting cell growth”.

For TGFα: transforming growth factor a, the “proliferative effect compared with the other mitogens” value in the data set on rat hepatocytes [3] (HBM medium, 15 days) is “stronger proliferative effect than any of the other mitogens when added alone”. The “cell proliferation … per culture at day 15” value in the data set on rat hepatocytes [3] is given as “significant cell proliferation”.

On to “type I (bovine): bovine skin collagen type I, dry coating matrix substrate”, for which the “promotion … per culture at day 15” value with rat hepatocytes [4] is “equally effective in promoting cell growth”.

With laminin, in the data set on rat hepatocytes [4], the “promotion … per culture at day 15” value is listed as “equally effective in promoting cell growth”.

With SCF: stem cell factor, in the data set with rat hepatocytes [3], the “cell proliferation … per culture at day 15” value was “no proliferative effect”.

For `CCC1(c2ccccc2)C(=O)NC(=O)NC1=O` [PB, Phenobarbitol], the “levels of cytochrome P450 IIB1 mRNA” value in data set [5] is recorded as “induced cytochrome IIB1 mRNA only in the Matrigel-treated cultures”.

Take “HGF/SF: Hepatocyte growth factor, also known as scatter factor”: in the data set on hepatocytes, the “phenotype of hepatocytes between two collagen gel layers” value was “multiple duct-shaped structures”. In the data set on rat hepatocytes [3], the “cell proliferation … per culture at day 15” value is on record as “significant cell proliferation”.

B1: KGF: keratinocyte growth factor (protein, UniProt P21781 32-194, looked up)
Fibroblast growth factor 7: CNDMTPEQMATNVNCSSPERHTRSYDYMEGGDIRVRRLFCRTQWYLRIDKRGKVKGTQEMKNNYNIMEIRTVAVGIVAIKGVESEFYLAMNKEGKLYAKKECNEDCNFKELILENHYNTYASAKWTHNGGEMFVALNQKGIPVRGKKTKKEQKTAHFLPMAIT
As for B1, in the data set with rat hepatocytes [3], the “cell proliferation … per culture at day 15” value was “no proliferative effect”.
